Km data for 1 compound are collected here from article PMC8943092, “Broad thermal spectrum metagenomic laccase with action for dye decolorization and fentin hydroxide treatment” (AMB Express, 2022).

The test system of the assay is LacMeta. The note with it: pH 4.0, 20 mM sodium citrate, 37 °C; copper-loaded enzyme 0.066 µM; ABTS 0.1-10 mM.

As for `CCn1c(=NN=c2sc3cc(S(=O)(=O)O)ccc3n2CC)sc2cc(S(=O)(=O)O)ccc21` [ABTS, 2,2′-azino-bis (3-ethylbenzothiazoline-6-sulfonic acid)], the Michaelis constant (Km) (usually the concentration of substrate that gives half-maximal velocity) worked out at 4.22 ± 0.374 mM.
